The values below come from patent US9605027B2, “Polypeptides that bound to IL-23 receptor and inhibit binding of IL-23 and cell signaling thereof” (Medical Diagnostic Laboratories, LLC, priority 2011, dated 2017).

The test system of this test is IL-23 induced IL-17F in rat splenocytes. In words: IL-17F mRNA expression induced by IL-23 in rat splenocytes. Type of test: cell-based. To be noted: IL-23 200 ng/ml, qRT-PCR; read-out: IC50, inhibition of IL-17F mRNA expression. As to the method:
Sprague Dawley (SD) rat spleen was isolated and placed in 3 ml of media (RPMI 1640 with 10% FBS) in a small petri dish (35×10 mm). The rat spleen was placed on a sterile wire mesh screen using sterile forceps. The rat spleen was pushed through the screen with the plunger of a 10 ml syringe into the petri dish. Then, the suspension was mixed by gently pipetting up and down. The cells were spun down at 1,000 rpm for 10 minutes. Red blood cells were lysed by adding a Red Blood Cell lysis buffer. The cell suspension was incubated at room temperature for 5 minutes. The cells were spun down at 1,000 rpm for 10 minutes. The pelleted splenocytes were washed twice with PBS. After washing, the isolated splenocytes were re-suspended in 10 ml of culture media (RPMI 1640 with 10% FBS).
Rat splenocytes (2.5×10^6 cells/ml) were prepared and cultured in RPMI-1640 with 10% FBS for 16 hours at 37° C. Cyclic peptide no. […] The stimulation was carried out for an additional 4 hours. mRNA expression of IL-17F was measured by qRT-PCR (rat IL-17F forward primer (GGC-TCC-TGT-GAA-ACA-ACC-AT)(SEQ ID NO: 180) and rat IL-17F reverse primer (ACA-GAA-ATG-CCC-TGG-TTT-TG) (SEQ ID NO: 181). The PCR was performed under the following conditions: 95° C. for 5 minutes, 95° C. for 30 seconds, 60° C. for 30 seconds 72° C. for 30 seconds, times 40 cycles. […]

pIC50: −log10 of the molar value. Peptide text beside a SMILES is read from it.

By pIC50 is commonly meant the negative decadic logarithm of the IC50, by convention in mol/L. Turning to `CSCC[C@@H]1NC(=O)[C@H](CCCCN)NC(=O)[C@H](C)NC(=O)[C@H](C)NC(=O)[C@H](CS)NC(=O)[C@H](CC(N)=O)NC(=O)[C@H](CCCCN)NC(=O)[C@H](CC(C)C)NC(=O)[C@H](Cc2c[nH]c3ccccc23)NC(=O)[C@H](Cc2ccc(O)cc2)NC(=O)[C@H](CC(=O)O)NC(=O)[C@H](C(C)C)NC(=O)[C@H](Cc2c[nH]c3ccccc23)NC(=O)[C@H]([C@@H](C)O)NC1=O` [2HT AA] (cyclo(AAKMTWVDYWLKNC)), the pIC50 is 6.57.
